The test has as its system PAF-induced aggregation of human thrombocytes. The test is described as follows: Inhibition of PAF-induced blood platelet aggregation in vitro. As to conditions: human thrombocyte-rich plasma, aggregation induced with PAF 5×10^-8 M, concentration giving 50% inhibition of aggregation, read-out: PAF-Antag. IC50. The test is classed as cell-based. The method, then:
1. Inhibition of blood platelet aggregation in vitro
The PAF-induced aggregation of human thrombocytes in vitro is used to determine PAF-antagonistic activity. To obtain thrombocyte-rich plasma (TRP), blood is taken from an uncongested vein using a plastic syringe containing 3.8% sodium citrate solution. The ratio of sodium citrate solution to blood is 1:9. After careful mixing the citrate blood is centrifuged for 20 minutes at 150 g (1200 rpm). The thrombocyte aggregation is measured using the method devised by Born and Cross (G. V. R. Born and M. J. Cross, J. Physiol. 168, 178 (1963)), by adding an aggregation initiator (PAF) to the TRP with constant stirring.
The test substance is added 2 to 3 minutes before aggregation is initiated in a volume of 10 μl. Either distilled water, ethanol and/or dimethylsulphoxide (each in suitable concentrations) can be used as solvent.
Control mixtures contain corresponding volumes of these solvents. After the initial absorption has been recorded (2 to 3 minutes) aggregation is induced with PAF (5×10^-8 M).
The maximum of the first aggregation wave is used to assess the effects of the substance. The PAF-induced maximum absorption rate (=maximum aggregation×100%) is tested at the same time in a parallel mixture (=control mixture in one of the channels of the two-channel aggregometer) as each test mixture (second channel) and is used as a 100% value.
The aggregation value attained under the effect of the test substance is given as a percentage of the control value, i.e. less than 100% in the case of an inhibition of aggregation and over 100% in the case of an increase.
Each test substance is investigated at concentrations of from 10^-3 to 10^-8 M with a random sampling of n=4 with regard to an inhibitory effect on the PAF-induced thrombocyte aggregation. Then a concentration-activity curve is drawn up using 3 concentrations and the IC50 is determined (concentration giving a 50% inhibition of aggregation).

SMILES strings stand for the structures. Some results are limits rather than exact numbers.

As to `CCn1nc(C)c2c1N(c1ccccc1)C(=O)CC(=O)N2` [Compound 17], the IC50 is greater than 100 µM. Consider `CN1C(=O)CC(=O)N(c2ccccc2Cl)c2cc(Cl)ccc21` [Compound 5], for which the IC50 came to 220 µM. As to `CN1C(=O)CC(=O)N(c2ccccc2Cl)c2cc([N+](=O)[O-])ccc21` [Compound 10], the IC50 was 310 µM. Consider `CN1C(=O)CC(=O)N(c2ccccn2)c2cc(Br)ccc21` [Compound 9], for which the IC50 was greater than 1000 µM.

Turning to `CCN1CCC(=O)N(c2ccccc2)c2cnccc21` [Compound 15], the IC50 is greater than 100 µM. Turning to `CN1C(=O)CC(=O)N(c2ccccc2)c2cnccc21` [Compound 16], the IC50 was greater than 50 µM.

In the case of `CC1C(=O)Nc2ccc(Br)cc2N(c2ccccc2)C1=O` (centres unmarked) [Compound 12], the IC50 amounted to 350 µM.

For the molecule `CN1C(=O)CC(=O)N(c2ccccc2C(F)(F)F)c2cc(Cl)ccc21` [Compound 6], the IC50 was 66 µM.

Take `CN1C(=O)CC(=O)N(c2ccccc2)c2ccc(Cl)cc21` [Compound 11]: the IC50 is 210 µM. Take `CCN1C(=O)CC(=O)N(c2ccccc2)c2cc(Cl)ccc21` [Compound 4]: the IC50 amounted to 98 µM.

Turning to `CN1C(=O)CC(=O)N(c2ccccc2)c2cc(C(F)(F)F)ccc21` [Compound 2, Triflubazam, reference compound], the IC50 was 200 µM. Turning to `COc1ccccc1N1C(=O)CC(=O)N(C)c2ccc(Cl)cc21` [Compound 8], the IC50 was determined as 290 µM. The value for `O=C1CC(=O)N(c2ccccc2)c2cc(Br)ccc2N1` was 470 µM; that for `CN1C(=O)CC(=O)N(c2ccccc2)c2cc(Cl)ccc21` [Compound 1, Clobazam, reference compound] was 250 µM; that for `O=C1CCN(CCO)c2ccc(Cl)cc2N1c1ccccc1` [Compound 14] was 285 µM. As for `CN1CCC(=O)N(c2ccccc2)c2cc(Br)ccc21` [Compound 13], the IC50 was greater than 1000 µM. As to `CN1C(=O)CC(=O)N(c2ccccc2F)c2ccccc21` [Compound 7], the IC50 amounted to 96 µM.

As usually defined, the IC50 is the concentration that inhibits the measured activity by half.

The values above are taken from patent US4622319A, “Methods of using PAF-antagonistic diazepines” (Boehringer Ingelheim KG, priority 1984, dated 1986).
